Test results as given in paper PMC3039689, “Identification of Small Molecule Lead Compounds for Visceral Leishmaniasis Using a Novel Ex Vivo Splenic Explant Model System” (PLoS Neglected Tropical Diseases, 2011).
Structures can show the parent of a compound that is named as a salt. Where two headings read alike, the source gives them in different places.

Tests used:
[1] = tested on: luciferase-transfected Leishmania donovani; assay: Anti-leishmanial efficacy (EC50) in the ex vivo splenic explant model; assay type: cell-based
Experimental: To establish the plate assay for drug screening, the spleens from 2 infected hamsters were aseptically removed and placed in a Petri dish containing 5 mL of Collagenase D (Roche) at 2 mg/mL of buffer (10 mM Hepes pH 7.4, 150 mM NaCl, 5 mM KCl, 1 mM MgCl2, 1.8 mM CaCl2). The spleen was infiltrated by injection with approximately 2 mL of Collagenase solution, the tissue was cut into small pieces using sharp scissors, and incubated for 20 minutes at 37°C. The cell suspension and remaining tissue fragments were gently passed through a 100 µm cell strainer (B–D) to obtain a single cell suspension, which was washed twice by centrifugation (500 g for 7 min at 4°C) and re-suspended in culture medium composed of DMEM (Gibco), 5% FBS, 1 mM Sodium pyruvate (Gibco), 1X MEM amino acids solution (Sigma), 0.02% v/v/EDTA, 10 mM HEPES buffer (Cellgro) and 100 IU/mL Penicillin/100 […] Streptomycin solution (Cellgro).
The anti-leishmanial efficacy of the compounds was determined using the splenic explant model in a 96-well plate format. […] Because variation in the parasite burden between different explant cultures was expected, the concentration of cells used in each experiment was adjusted to give approximately 100 counts by luminometry (equivalent to ∼240,000 parasites). The number of surviving parasites was determined by luminometry as described above.

[2] = Cell toxicity (CC50) in the HepG2 cell line, CellTiter-Glo; assay type: cell-based, human; conditions: human
Experimental: After 24 hours of culture at 37°C the number of viable cells was determined by quantification of the ATP present in the cell using the CellTiter-Glo luminescent Cell Viability Assay (Promega).

[3] = Leishmania donovani, 48 h, ex vivo splenic explant, 48 h, luminometry, at least two experiments, compound from screened library, read-out: Ex vivo model EC50 Mean
[4] = HepG2 cells, HepG2 cell line, 24 h, ATP luminescence, compound from screened library, read-out: HepG2 CC50 Mean
[5] = Leishmania donovani, ex vivo splenic explant, 48 h, luminometry, at least two experiments, compound from screened library, read-out: Ex vivo model EC50 Mean
[6] = Leishmania donovani, 50% reduction in parasite counts in the ex vivo model, read-out: EC50 Mean (Table S2)
[7] = HepG2 cell line, 24 h, ATP luminescence, compound from screened library, read-out: HepG2 CC50 Mean
[8] = 50% reduction in parasite counts in the ex vivo model, read-out: EC50 Mean (Table S2)

Row | Molecule | EC50 [1, 3] | CC50 at 24 h [2, 4] | EC50 [1, 5] | also measured
1 | CN(C)CC1CCC2=C(C1=O)C(c1ccc(Cl)c(Cl)c1)C1=C(CCC(CN(C)C)C1=O)O2 (stereo not shown) [9-(3,4-Dichlorophenyl)-2,7-bis(dimethylaminomethyl)-3,4,5,6,7,9-hexahydro-2H-xanthene-1,8-dione] | 9.4 µM | 49.8 µM | – | –
2 | Oc1c(I)cc(Cl)c2cccnc12 [Clioquinol] | – | 60 µM | 11.3 µM | –
3 | CN(C)CCCN1c2ccccc2Sc2ccc(Cl)cc21 [Chlorpromazine] | – | – | – | EC50 [1, 6]: 15.1 µM; CC50 at 24 h [2]: 96.1 µM
4 | CN(C)CCCNc1cc(O)c2c(c1O)C(=O)c1ccccc1C2=O [2-((3-(dimethylamino)propyl)amino)-1,4-dihydroxyanthra-9,10-quinone] | – | – | 6.7 µM | CC50 [2, 7]: 75.1 µM
5 | Cc1c2ccncc2c(C)c2c1[nH]c1ccccc12 [Ellipticine] | 2.4 µM | – | – | CC50 [2]: 30.7 µM
6 | CN(C)CCCN1CCC2(CCC(C(C)(C)C)CC2)CC1 [3-(9-tert-butyl-3-azaspiro[5.5]undec-3-yl)-N,N-dimethyl-1-propanamine] | 6.1 µM | 61.8 µM | – | –
7 | CC(C)=CCNc1ncnc2nc[nH]c12 [N6-Isopentenyladenine] | – | – | 20 µM | CC50 [2]: 225 µM
8 | O=C1C=C2C=C[C@@H]3C[C@@]2(O1)[C@H]1CCCCN31 [Securinine] | – | – | 6.2 µM | CC50 [2, 7]: 47.7 µM
9 | CC[C@@]1(O)C[C@H](O[C@H]2C[C@H](N(C)C)[C@H](O)[C@H](C)O2)c2c(cc3c(c2O)C(=O)c2c(O)cccc2C3=O)[C@H]1C(=O)OC [Aklavine Hydrochloride] | – | – | 0.7 µM | CC50 [2, 7]: 14 µM
10 | C=C1C(=O)O[C@H]2[C@H]1CC/C(C)=C/CC[C@@]1(C)O[C@@H]21 [Parthenolide] | 13.3 µM | 81.1 µM | – | EC50 [1, 6]: 13.3 µM
11 | CC[C@@H](C(=O)O)[C@@H]1O[C@@H]([C@@H](C)[C@H](O)[C@H](C)C(=O)[C@H](CC)[C@H]2O[C@]3(C=C[C@@H](O)[C@]4(CC[C@@](C)([C@H]5CC[C@](O)(CC)[C@H](C)O5)O4)O3)[C@H](C)C[C@@H]2C)[C@@H](C)C[C@@H]1C [Narasin] | 13.3 µM | – | – | EC50 [1, 6]: 13.3 µM; CC50 at 24 h [2]: 73 µM
12 | C[C@]12C(=O)C=CCC1=CC[C@@H]1[C@@H]2CC[C@@]2(O)C(=O)O[C@@]3(C)[C@H]4C[C@]5(C)[C@@H](CO[C@@]16O[C@]23[C@H]5C6=O)C(=O)O4 [Physalin B] | – | – | 8.6 µM | EC50 [1, 6]: 8.59 µM; CC50 at 24 h [2, 7]: 50.7 µM
13 | OC1(c2ccccc2)c2ccccc2NC2=NCCN21 (stereo not shown) [5-phenyl-3,10-dihydro-2H-imidazo[2,1-b]quinazolin-5-ol] | 12 µM | 107 µM | – | –
14 | Oc1c(Cl)cc(Cl)c(Cl)c1Cc1c(O)c(Cl)cc(Cl)c1Cl [Hexachlorophene] | – | – | – | EC50 ([1]; Leishmania donovani, 48 h, read-out: Ex vivo model EC50 Mean): 13.6 µM
15 | CC(C)[C@@H]1NC(=O)[C@H](C)OC(=O)[C@@H](C(C)C)NC(=O)[C@@H](C(C)C)OC(=O)[C@H](C(C)C)NC(=O)[C@H](C)OC(=O)[C@@H](C(C)C)NC(=O)[C@@H](C(C)C)OC(=O)[C@H](C(C)C)NC(=O)[C@H](C)OC(=O)[C@@H](C(C)C)NC(=O)[C@@H](C(C)C)OC1=O [Valinomycin] | – | – | 0.02 µM | CC50 at 24 h [2, 7]: 10.7 µM
16 | CN(C)CCCN1c2ccc(O)cc2Sc2ccc(Cl)cc21 [7-Hydroxychlorpromazine] | – | – | 11 µM | CC50 [2, 7]: 60.1 µM
17 | C[C@]12CC[C@H]3[C@@H](CC=C4C[C@@H](O)CC[C@@]43C)[C@@H]1CC[C@@H]2N(CCO)CCO [17beta-[Bis(2-hydroxyethyl)amino]androst-5-en-3beta-ol] | 7.5 µM | 88.5 µM | – | –
18 | COc1ccc(-c2cc(=O)c3cc(OC)ccc3o2)cc1 [6,4'-dimethoxyflavone] | 17.9 µM | 95 µM | – | –
19 | C[C@@H]1CC[C@@]2(OC1)O[C@H]1[C@@H](O)[C@H]3[C@@H]4CC[C@H]5C[C@@H](O[C@@H]6O[C@H](CO)[C@H](O[C@@H]7O[C@H](CO)[C@@H](O)[C@H](O[C@@H]8OC[C@@H](O)[C@H](O)[C@H]8O)[C@H]7O[C@@H]7O[C@H](CO)[C@H](O)[C@H](O[C@@H]8O[C@H](CO)[C@@H](O)[C@H](O)[C@H]8O)[C@H]7O)[C@H](O)[C@H]6O)[C@H](O)C[C@]5(C)[C@H]4CC[C@]3(C)[C@H]1[C@@H]2C [Digitonin] | 8.2 µM | – | – | CC50 [2, 7]: 42.4 µM

Row | Molecule | EC50 [1, 3] | CC50 at 24 h [2, 4] | EC50 [1, 5] | also measured
20 | CN(C)CCCNc1c2c(nc3ccc(Cl)cc13)CCCC2 [N-(7-chloro-1,2,3,4-tetrahydroacridin-9-yl)-N',N'-dimethyl-propane-1,3-diamine] | – | – | 6.4 µM | CC50 [2, 7]: 58.8 µM
21 | COc1ccc2cc1Oc1ccc(cc1)C[C@H]1c3c(cc4c(c3Oc3cc5c(cc3OC)CCN(C)[C@@H]5C2)OCO4)CCN1C [Cepharanthine] | 11.4 µM | – | – | CC50 at 24 h [2]: 86.3 µM
22 | CSc1ccc2c(c1)c(CCN)c(C)n2Cc1ccccc1Cl [2-[1-[(2-chlorophenyl)methyl]-2-methyl-5-methylsulfanyl-indol-3-yl]ethanamine] | – | – | 9.4 µM | CC50 [2, 7]: 71.8 µM
23 | CC(NCCN(C)C)C1CC[C@H]2[C@@H]3CCc4cc(O)ccc4[C@H]3CC[C@]12C (stereo partly shown) [17-(1-((2-(dimethylamino)ethyl)amino)ethyl)estra-1,3,5(10)-trien-3-ol] | 6.2 µM | – | – | CC50 at 24 h [2]: 51.6 µM
24 | Clc1ccc2c(NC3CCC(N4CCCCC4)CC3)ccnc2c1 (stereo not shown) [7-chloro-N-(4-(1-piperidinyl)cyclohexyl)-4-quinolinamine] | 6.3 µM | 67.4 µM | – | –
25 | Clc1ccc2c(NCCNC3CCCCC3)ccnc2c1 [N1-(7-chloro-4-quinolinyl)-N2-cyclohexyl-1,2-ethanediamine] | 3.9 µM | 46.2 µM | – | –
26 | CC(C)(C)NCCC(O)c1cc(C(F)(F)F)nc2c(C(F)(F)F)cccc12 (stereo not shown) [1-(2,8-bis(trifluoromethyl)-4-quinolinyl)-3-(tert-butylamino)-1-propanol] | 7.9 µM | 44.2 µM | – | –
27 | COc1cc(NCCC2CCCCN2)c2ncccc2c1 (stereo not shown) [6-methoxy-N-(2-(2-piperidinyl)ethyl)-8-quinolinamine] | – | – | 5.1 µM | CC50 at 24 h [2]: 108 µM
28 | C=C1C(=O)O[C@H]2C[C@@H]1C(OC(C)=O)C/C(C)=C/CC/C(C)=C/CC[C@@]2(C)O (stereo partly shown) [Crassin Acetate] | 7.7 µM | 41.1 µM | – | –
29 | CC[n+]1c(-c2ccccc2)c2cc(N)ccc2c2ccc(N)cc21 [Homidium Bromide] | – | – | 11.9 µM | EC50 [1, 6]: 11.9 µM; CC50 [2, 7]: 58.8 µM
30 | Oc1ccc(Cl)c2cccnc12 [Cloxyquin] | – | 94.8 µM | – | –
31 | [H]/N=C(\N/C(=N/[H])NCCCCCCNC(=N)NC(=N)Nc1ccc(Cl)cc1)Nc1ccc(Cl)cc1 [Chlorhexidine] | – | 60.5 µM | 10.3 µM | –
32 | CCN(CC)CCN1C(=O)c2cccc3cc(N)cc(c23)C1=O [1H-Benz[de]isoquinoline-1,3(2H)-dione, 5-amino-2-[2-(diethylamino)ethyl]-] | – | – | 8.4 µM | CC50 [2, 7]: 69.3 µM
33 | C[C@@H]1[C@H](O)[C@@H](C)/C=C/C=C/C=C/C=C/C=C/C=C/C=C/[C@H](O[C@@H]2O[C@H](C)[C@@H](O)[C@H](N)[C@@H]2O)C[C@@H]2O[C@](O)(C[C@@H](O)C[C@@H](O)[C@H](O)CC[C@@H](O)C[C@@H](O)CC(=O)O[C@H]1C)C[C@H](O)[C@H]2C(=O)O [amphotericin B deoxycholate] | – | – | – | EC50 ([1]; Leishmania donovani, ex vivo model, freshly solubilized compound from commercial source, read-out: EC50): 0.24 ± 0.02 µM
34 | CNCCCC12CCC(c3ccccc31)c1ccccc12 [Maprotiline Hydrochloride] | – | – | – | CC50 at 24 h [2]: 57.9 µM
35 | Neomycin sulfate | – | – | – | EC50 [1, 8]: 6.72 µM; Activity in the ex vivo system (screen or EC50 determination) ([1]; transgenic L. donovani, ex vivo system): identified as a compound with activity
36 | Monensin Sodium | – | – | – | EC50 [1, 8]: 2.44 µM; EC50 ([1]; ex vivo splenic explant, 48 h, luminometry, at least two experiments, compound from screened library, read-out: Ex vivo model EC50 Mean): 2.4 µM
37 | CN[C@H]1CC[C@@H](c2ccc(Cl)c(Cl)c2)c2ccccc21 [Sertraline Hydrochloride] | – | – | – | CC50 at 24 h [2]: 82.5 µM
